row,melting point,Compound
1,170 °C,"O=C(CNC1CCCCC1)Nc1n[nH]c2cc(Cl)ccc12 [Example 79, N-(6-chloro-1H-indazol-3-yl)-2-(cyclohexylamino)acetamide]"
2,180 °C,"CCCC(=O)Nc1n[nH]c2c(F)c(N3CCOCC3)c(N)cc12 [Example 113, N-(7-fluoro-5-amino-6-morpholino-1H-indazol-3-yl)butanamide]"
3,250 °C,"CCCC(=O)Nc1n[nH]c2c(F)c(N3CCOCC3)c([N+](=O)[O-])cc12 [Example 112, N-(7-fluoro-5-nitro-6-morpholino-1H-indazol-3-yl)butanamide]"
4,104 °C,"CN(C)CCNCC(=O)Nc1n[nH]c2cc(Cl)ccc12 [Example 86, N-(6-chloro-1H-indazol-3-yl)-2-[[2-(dimethylamino)ethyl]amino]acetamide]"
5,230 °C,"CCCC(=O)Nc1n[nH]c2ccc(C(F)(F)F)cc12 [Example 22, N-[5-(trifluoromethyl)-1H-indazol-3-yl]butanamide]"
6,153 °C,"O=C(CN1CCCCC1)Nc1n[nH]c2cc(Cl)ccc12 [Example 76, N-(6-chloro-1H-indazol-3-yl)-1-piperidineacetamide]"
7,158 °C,"O=C(CN1CCCCC1)Nc1n[nH]c2c(F)c(F)ccc12 [Example 118, N-(6,7-difluoro-1H-indazol-3-yl)-1-piperidineacetamide]"
8,225 °C,"O=C(Nc1n[nH]c2ccc(NS(=O)(=O)c3cccc(F)c3)cc12)c1ccccc1 [Example 38, N-[5-[[(3-fluorophenyl)sulphonyl]amino]-1H-indazol-3-yl]benzamide]"
9,165 °C,CN1CCN(CC(=O)Nc2n[nH]c3cc(Cl)ccc23)CC1
10,156 °C,"O=C(CNCc1ccccc1)Nc1n[nH]c2cc(Cl)ccc12 [Example 80, 2-[(phenylmethyl)amino]-N-(6-chloro-1H-indazol-3-yl)acetamide]"
11,168 °C,"O=C(CN1CCCC1)Nc1n[nH]c2cc(Cl)ccc12 [Example 85, N-(6-chloro-1H-indazol-3-yl)-1-pyrrolidineacetamide]"
12,250 °C,"CCCC(=O)Nc1n[nH]c2cc(Br)c(Br)cc12 [Example 70, N-[5,6-dibromo-1H-indazol-3-yl]butanamide]"
13,255 °C,"CCCC(=O)Nc1n[nH]c2c(F)c(F)c([N+](=O)[O-])cc12 [Example 106, N-(6,7-difluoro-5-nitro-1H-indazol-3-yl)butanamide]"
14,220 °C,CCCC(=O)Nc1n[nH]c2c(F)c(F)c(Br)cc12

# — patent US6949579B2, “Aminoindazole derivatives and intermediates, preparation thereof, and pharmaceutical compositions thereof” (Aventis Pharma S.A., priority 2002, dated 2005)
